Data set [1] deals with T1, Transient receptor potential cation channel subfamily V member 1 (Rattus norvegicus, UniProt O35433). In words: Vanilloid receptor subtype 1 antagonist activity based on its ability to block capsaicin-induced (CAP) activation of the rat VR1 channel in a HEK293 cell line. Type of data set: functional.
Data set [2] deals with T1, Transient receptor potential cation channel subfamily V member 1. Put plainly: Vanilloid receptor subtype 1 antagonist activity based on its ability to block low pH-induced activation of the rat VR1 channel in a HEK293 cell line. It is filed as functional.
A short description of data set [3]: Oral bioavailability in rat by po administration at a dose of 40 mg/kg. It is filed as ADME, organism-based. The conditions noted are these: in vivo.
Data set [4] is described as follows: Half life period in rat by iv administration at a dose of 3 mg/kg. Type of data set: ADME, organism-based. Also on record: dose 3 mg/kg, route intravenous. The following applies: in vivo.
Data set [5] is described as follows: Plasma clearance in rat by iv administration at a dose of 3 mg/kg. It is filed as ADME, organism-based. Also on record: dose 3 mg/kg, route intravenous.
Data set [6] is described as follows: Tmax in rat by po administration at a dose of 40 mg/kg. The following applies: in vivo. Also on record: dose 40 mg/kg, route oral. Type of data set: ADME, organism-based.
A short description of data set [7]: Pharmacokinetic (PK) parameter Vz in rat. The conditions noted are these: in vivo, read-out: Vz. It is filed as ADME, organism-based.
A short description of data set [8]: Cmax in rat by po administration at a dose of 40 mg/kg. It is filed as ADME, organism-based. Also on record: dose 40 mg/kg, route oral. The following applies: in vivo.

T1 sequence (O35433 whole entry): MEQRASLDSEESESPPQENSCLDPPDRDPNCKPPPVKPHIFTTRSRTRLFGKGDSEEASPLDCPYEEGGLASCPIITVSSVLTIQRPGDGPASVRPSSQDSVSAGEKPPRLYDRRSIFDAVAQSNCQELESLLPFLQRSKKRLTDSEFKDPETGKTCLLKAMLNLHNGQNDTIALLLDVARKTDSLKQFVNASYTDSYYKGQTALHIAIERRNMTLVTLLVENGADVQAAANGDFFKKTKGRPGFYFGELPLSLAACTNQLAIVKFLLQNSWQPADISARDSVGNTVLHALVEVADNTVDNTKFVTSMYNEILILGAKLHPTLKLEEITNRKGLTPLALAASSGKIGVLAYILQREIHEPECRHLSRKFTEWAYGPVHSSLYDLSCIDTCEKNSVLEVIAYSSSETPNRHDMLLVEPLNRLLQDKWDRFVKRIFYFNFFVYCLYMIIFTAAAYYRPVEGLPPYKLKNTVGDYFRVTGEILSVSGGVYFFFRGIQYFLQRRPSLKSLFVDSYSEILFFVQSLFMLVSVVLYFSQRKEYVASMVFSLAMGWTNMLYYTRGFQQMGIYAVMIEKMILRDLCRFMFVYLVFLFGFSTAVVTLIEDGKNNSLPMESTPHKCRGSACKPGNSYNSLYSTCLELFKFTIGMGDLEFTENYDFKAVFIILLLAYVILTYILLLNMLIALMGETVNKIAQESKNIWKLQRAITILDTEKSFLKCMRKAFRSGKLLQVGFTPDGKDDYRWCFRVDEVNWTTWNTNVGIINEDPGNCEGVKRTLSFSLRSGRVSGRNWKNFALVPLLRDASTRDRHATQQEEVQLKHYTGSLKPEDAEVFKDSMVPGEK

As to `CCCCc1ccc(NC(=O)N2CCN(c3ncccc3C(F)(F)F)CC2)cc1`, the values for the IC50 in data set [1] and in data set [2] were 1360 nM and 5180 nM, respectively.
As for `Cc1cccnc1N1CCN(C(=O)Nc2ccc(C(C)C)cc2)CC1`, the results for the IC50 in data set [1] and in data set [2] were 25.3 nM and 173 nM, respectively.
As to `O=C(Nc1ccc(C(F)(F)F)cc1)N1CCN(c2ncccc2Cl)CC1`, the IC50 in data set [1] was determined as 63.5 nM; in data set [2] it was 81.4 nM.
`CCC(C)c1ccc(NC(=O)N2CCN(c3ncccc3Cl)CC2)cc1` (stereo not drawn): the IC50 in data set [1] was determined as 17.4 nM; in data set [2], 23.3 nM.
Turning to `CCc1ccc(NC(=O)N2CCN(c3ncccc3C(F)(F)F)CC2)cc1`, the IC50 in data set [1] is 111 nM; in data set [2], 121 nM.
On to `O=C(Nc1ccc(OC(F)(F)F)cc1)N1CCN(c2ncccc2Cl)CC1`, for which the IC50 in data set [1] came to 93.2 nM; in data set [2] it was 261 nM.
Consider `CC(C)(C)c1ccc(NC(=O)N2CCN(c3ncccc3C(F)(F)F)CC2)cc1`, for which the IC50 in data set [1] was 11.3 nM; in data set [2], 57.7 nM.
`CC(C)c1ccc(NC(=O)N2CCN(c3ncccc3Cl)CC2)cc1`: in data set [1], the IC50 was found to be 11.5 nM.
For the molecule `CC(C)c1ccc(NC(=O)N2CCN(c3ncccc3Br)CC2)cc1`, the IC50 in data set [1] is 4.6 nM; in data set [2], 27.1 nM.
In data set [1], `O=C(Nc1ccc(Cl)cc1)N1CCN(c2ncccc2Cl)CC1` yielded an IC50 of 655 nM.
With `O=C(Nc1ccc([N+](=O)[O-])cc1)N1CCN(c2ncccc2Cl)CC1`, the figures for the IC50 in data set [1] and in data set [2] were 1110 nM and greater than 25000 nM, respectively.
For the molecule `CC(C)(C)c1ccc(NC(=O)N2CCN(c3ncccc3Cl)CC2)cc1`, the bioavailability in data set [3] was 15.1%. Further, in data set [4], the half-life was 54 min. Besides, the clearance in data set [5] is 76.7 mL/min/kg. Also, in data set [6], the Tmax worked out at 30 min. The Vd in data set [7] was determined as 5.8 L/kg. Moreover, in data set [8], the peak level (Cmax) was 1120 ng/mL.
Take `O=C(Nc1ccc(C2CCCCC2)cc1)N1CCN(c2ncccc2Cl)CC1`: the values for the IC50 in data set [1] and in data set [2] were 29.8 nM and 91.7 nM, respectively.
Molecule `Oc1cc2c(cc1O)CN(C(=S)NCCc1ccc(Cl)cc1)CCC2` [CAPSAZEPINE] gave an IC50 in data set [1] of 58 nM.
As to `CC(C)c1ccc(NC(=O)N2CCN(c3ncccc3C=O)CC2)cc1`, the IC50 in data set [1] is 201 nM; in data set [2] it was 1400 nM.
Regarding `CCc1ccc(NC(=O)N2CCN(c3ncccc3Cl)CC2)cc1`, the half-maximal inhibitory concentration (IC50) in data set [1] worked out at 107 nM; in data set [2] it was 56.6 nM.
For `O=C(Nc1ccc(Br)cc1)N1CCN(c2ncccc2Cl)CC1`, the IC50 in data set [1] was found to be 491 nM; in data set [2], 1010 nM.
Consider `CCCc1ccc(NC(=O)N2CCN(c3ncccc3Cl)CC2)cc1`, for which the IC50 turned out to be 41.6 nM in data set [1] and 73 nM in data set [2].
As for `CCc1cccnc1N1CCN(C(=O)Nc2ccc(C(C)C)cc2)CC1`, the IC50 in data set [1] was found to be 230 nM; in data set [2] it was 828 nM.
On to `CC(C)c1ccc(NC(=S)N2CCN(c3ncccc3C(F)(F)F)CC2)cc1`, for which the results for the IC50 in data set [1] and in data set [2] were 872 nM and 575 nM, respectively.
For the molecule `O=C(Nc1ccc(Oc2ccccc2)cc1)N1CCN(c2ncccc2C(F)(F)F)CC1`, the results for the IC50 in data set [1] and in data set [2] were 258 nM and 916 nM, respectively.
`CC(C)(C)c1ccc(NC(=S)N2CCN(c3ncccc3C(F)(F)F)CC2)cc1`: the IC50 in data set [1] was determined as 246 nM; in data set [2], 441 nM.
As to `CC(C)c1ccc(NC(=O)N2CCN(c3ncccc3C#N)CC2)cc1`, the IC50 in data set [1] was 287 nM; in data set [2], greater than 25000 nM.
Turning to `CCCCc1ccc(NC(=O)N2CCN(c3ncccc3Cl)CC2)cc1`, the IC50 in data set [1] was 117 nM; in data set [2], 203 nM.
The like results for `CC(C)c1ccc(NC(=O)N2CCN(c3ncccc3[N+](=O)[O-])CC2)cc1` were, in that order, 190 nM and 245 nM.
With `CC(C)c1ccc(NC(=O)N2CCN(c3ncccc3C(F)F)CC2)cc1`, the half-maximal inhibitory concentration (IC50) in data set [1] was found to be 27.7 nM; in data set [2] it was 61.5 nM.
The molecule `CC(C)c1ccc(NC(=O)N2CCN(c3ncccc3C(F)(F)F)CC2)cc1` had an IC50 in data set [1] of 57.5 nM.
Consider `O=C(Nc1ccc2ccccc2c1)N1CCN(c2ncccc2Cl)CC1`, for which the values for the IC50 in data set [1] and in data set [2] were 479 nM and 278 nM, respectively.
As to `Cc1ccc(NC(=O)N2CCN(c3ncccc3C(F)(F)F)CC2)cc1`, the IC50 in data set [1] came out at 556 nM.
`CC(C)(C)[C@H]1CC[C@H](NC(=O)N2CCN(c3ncccc3Cl)CC2)CC1`: the figures for the IC50 in data set [1] and in data set [2] were 3.9 nM and 17.2 nM, respectively.
Regarding `O=C(Nc1ccc(I)cc1)N1CCN(c2ncccc2Cl)CC1`, the IC50 was 285 nM in data set [1] and 310 nM in data set [2].
For `CC(C)c1ccc(NC(=O)N2CCN(c3ncccc3I)CC2)cc1`, the half-inhibitory concentration (IC50) in data set [1] was found to be 56.7 nM; in data set [2], 77.4 nM.

As a reminder, the IC50 is the concentration at which inhibition is half-maximal. The bioavailability is the share of a dose that reaches the circulation, judged against a reference dose that is usually intravenous. A higher bioavailability goes with good availability. The term half-life denotes the time needed for the level to fall by half in the phase considered. High values mean slow decline, low ones rapid decline. As usually defined, the clearance is a measure of how efficiently the substance is removed, as volume per time. By Tmax is commonly meant the time from dosing to the highest level. By Cmax is commonly meant the peak of the concentration-time curve.
